Experimental findings from patent US9879059B2, “Tailoring multivalent interactions of biopolymers with a polyproline scaffold” (Agency for Science, Technology and Research, priority 2013, dated 2018) are described below.

One experiment has as its target NGF (Homo sapiens, UniProt P01138). As for the experimental part:
Affinity measurements were performed using a Biacore T100 system (GE Heathcare). The CM5 sensor chip was used for all measurements. At first, the instrument was primed with HBS-EP+ (GE Heathcare) buffer. Then, 700RU of streptavidin was immobilized on all flow cells. A 1:1 mixture of 0.4 M EDC and 0.1 M NHS was used to activate the flow cells, and 0.008 mg/mL streptavidin solution reconstituted in Acetate 5.0 buffer (GE Healthcare) was injected. Blocking of the remaining activated groups was done with a 1 M solution of ethanolamine (pH 8.5). Flow cell 1 (or 3) was used as a reference to subtract nonspecific binding, drift, and the bulk refractive index, while flow cell 2 (or 4) was further immobilized with glycol-peptide samples of varying structures. Biotinylated glycopeptides (20 nM) were dissolved in HBS-EP+ buffer and were injected to flow cell 2 (or 4) at 30 μL/min until the baseline response increased by 104 or 127 RU. The instrument was then primed using running buffer (HBS-EP+). NGF was dissolved in HBS-EP+ buffer to produce a 185 nM stock solution, which was serially diluted to produce a concentration series down to 11 nM. […] Flow cells were regenerated by 2.5 M MgCl2 at 30 μL/min for 30 seconds after injection of each protein solutions.
Surface plasmon resonance (SPR) technology was further employed to facilitate quantitative, real-time kinetic analysis of glycopeptide-NGF interaction. Streptavidin was coated on a carboxydextran CM5 sensor chip, using EDC/NHS coupling chemistry, at a relatively low density (≈700 RU) to prevent nonspecific interactions with NGF. Biotinylated glycopeptides were then immobilized on streptavidin-coated surface at normalized levels by molecular weights,^[12] […] Kinetics were monitored at 25° C. by injecting various concentrations of NGF (11-185 nM) over the surface for 240 s at 50 μL·min^−1 and recording the dissociation for 800 s before the surface was regenerated with 2.5 M solution of MgCl2. […] Further kinetic analysis was conducted using a two-state binding model for comprehensive understanding of this binding event.

A further experiment has as its system PC12 cells. The protocol: Rat pheochromocytoma (PC12) cells were maintained in T75 tissue culture flask in complete RPMI 1640 growth medium containing 10% heat-inactivated horse serum (HI-HS), 5% fetal bovine serum (FBS) and 1% penicillin/streptomycin. Stock cultures from liquid nitrogen were grown at 37° C. with 5% CO2 in a humidified chamber for 72 hr before experiments.
13 mm glass coverslips were submerged in 65% nitric acid for at least three days. The coverslips were washed with distilled water, 70% ethanol and 100% ethanol 3× each for 30 minutes with gentle rocking. The coverslips were dried in the cell culture hood overnight with UV sterilization. For coating, 60 μl of laminin solution (25 μg/ml in sterile PBS) was added to each coverslip, followed by 2 hr incubation at 37° C. The coverslips were rinsed 3× with PBS and dried in the hood before use.
PC12 cells were seeded on laminin-coated coverslips at a density of 100 cells/mm^2 in RPMI 1640 differentiation medium containing 1% HI-HS. Cells were allowed to attach to the surface for 1 hr at 37° C. The coverslips were transferred to 24-well plates and the cells were incubated with fresh differentiation medium for 1 hr. Glycopeptides were incubated with NGF in differentiation medium for 1 hr at room temperature before adding to the cells together. At the end of culture period, the cells were fixed with 4% formaldehyde solution for 15 minutes at room temperature and rinsed 2× with PBS. All experiments were repeated three times and done in duplicate each time. For each treatment, 400-500 randomly selected single cells were counted. The percentage of neurite-bearing cells was determined by counting the number of cells with neurite length at least one cell body long.

Experiment [1] deals with nerve growth factor (NGF) (Homo sapiens, UniProt P01138). As to the kind of experiment: ELISA of NGF binding to immobilized biotinylated glycopeptides. The following applies: relative to glycopeptide 1.
nerve growth factor (NGF), sequence (P01138 122-241, species assumed): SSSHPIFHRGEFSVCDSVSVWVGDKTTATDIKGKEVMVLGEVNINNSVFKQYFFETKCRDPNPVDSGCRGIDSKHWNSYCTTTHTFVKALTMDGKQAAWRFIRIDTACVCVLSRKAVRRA
Procedure: The new plate was rinsed three times with PBS containing 0.05% Tween 20 and one time with PBS before the experiment. 100 μL of biotinylated glycopeptide solutions (0.5 μM) were added to required wells in the Pierce Streptavidin Coated High Binding Capacity plates (#15501), and incubated overnight at room temperature. After immobilization of glycopeptides, the plates were rinsed three times with PBS containing 0.05% Tween 20 and one time with PBS. The surface was then blocked with 125 μL of 3% BSA in PBS for 1 hr, followed by rinsing three times with PBS containing 0.05% Tween 20 and one time with PBS. 100 μL of varying concentrations (0 nM, 10 nM, 20 nM, 30 nM, 40 nM, 50 nM and 60 nM) of NGF in PBS containing 1% BSA was added to the wells and incubated for 2 hrs at 37° C. […]
The wells were then incubated with anti-NGF labeled with HRP in PBS containing 1% BSA. Absorbance signal was then developed with 100 μL of TMB Substrate from Thermo Scientific Pierce (#0034021) for 20 to 30 min before quenching with 100 μL of 2M H2SO4. Absorbance at 450 nm was then measured.
To evaluate the ability of the glycopeptides to interact with protein receptors, the binding affinity of each agent with nerve growth factor (NGF), which is known to bind CS-E sulfation motif selectively,^[9] was examined by ELISA. […] The amount of glycopeptide-bound NGF was measured by HRP-conjugated polyclonal NGF antibody.
In the next experiment the test system is TrkA. Conditions: 10 μM glycopeptide 1 hr, NGF 4 ng/ml 5 minutes, ratio phospho-TrkA to total TrkA.
[2] abbreviates: two-state kinetic model, 25° C., NGF 11-185 nM.

NGF, sequence (P01138 122-241, species assumed): as above
Procedure for TrkA: PC12 cells were seeded on laminin-coated coverslips at a density of 300 cells/mm^2 and one coverslip was used for each treatment (˜40,000 cells in total). Cells were starved in differentiation medium for 12-18 hr before use. For glycopeptide treatment, cells were incubated with fresh differentiation medium containing 10 μM glycopeptide for 1 hr at 37° C. To induce TrkA phosphorylation, cells were treated with NGF at a final concentration of 4 ng/ml for 5 minutes at 37° C. Cells were washed with ice cold PBS and lysed using RIPA lysis buffer containing protease and phosphatase inhibitors. The protein samples were separated on 4-12% SDS-PAGE gel and transferred to nitrocellulose membrane. Membranes were blocked for 1 h at room temperature and probed with anti-TrkA Ab (1:1500) and anti-pTrkA Ab (1:1500) overnight at 4° C., followed by 2 hr incubation with horseradish peroxidase-conjugated secondary antibodies. Enhanced chemiluminescence system was used for detection. The bands were quantified using the ImageJ program and the ratio of phosphor-TrkA to total TrkA was calculated and expressed as arbitrary units (a.u.).

Take `COC(=O)[C@@H]1C[C@@H](n2cc(CO[C@@H]3O[C@H](COS(=O)(=O)O)[C@H](OS(=O)(=O)O)[C@H](O[C@@H]4O[C@H](C(=O)O)[C@@H](O)[C@H](O)[C@H]4O)[C@H]3NC(C)=O)nn2)CN1C(=O)[C@@H]1CCCN1C(=O)[C@@H]1CCCN1C(=O)[C@@H]1C[C@@H](n2cc(CO[C@@H]3O[C@H](COS(=O)(=O)O)[C@H](OS(=O)(=O)O)[C@H](O[C@@H]4O[C@H](C(=O)O)[C@@H](O)[C@H](O)[C@H]4O)[C@H]3NC(C)=O)nn2)CN1C(=O)[C@@H]1CCCN1C(=O)[C@@H]1CCCN1C(=O)[C@@H]1C[C@@H](n2cc(CO[C@@H]3O[C@H](COS(=O)(=O)O)[C@H](OS(=O)(=O)O)[C@H](O[C@@H]4O[C@H](C(=O)O)[C@@H](O)[C@H](O)[C@H]4O)[C@H]3NC(C)=O)nn2)CN1C(=O)[C@@H]1CCCN1C(=O)[C@@H]1CCCN1C(=O)[C@@H]1C[C@@H](n2cc(CO[C@@H]3O[C@H](COS(=O)(=O)O)[C@H](OS(=O)(=O)O)[C@H](O[C@@H]4O[C@H](C(=O)O)[C@@H](O)[C@H](O)[C@H]4O)[C@H]3NC(C)=O)nn2)CN1C(=O)[C@@H]1CCCN1C(=O)[C@@H]1CCCN1C(=O)[C@@H]1C[C@@H](n2cc(CO[C@@H]3O[C@H](COS(=O)(=O)O)[C@H](OS(=O)(=O)O)[C@H](O[C@@H]4O[C@H](C(=O)O)[C@@H](O)[C@H](O)[C@H]4O)[C@H]3NC(C)=O)nn2)CN1C(=O)[C@@H]1CCCN1C(=O)[C@@H]1CCCN1C(=O)[C@@H]1C[C@@H](n2cc(CO[C@@H]3O[C@H](COS(=O)(=O)O)[C@H](OS(=O)(=O)O)[C@H](O[C@@H]4O[C@H](C(=O)O)[C@@H](O)[C@H](O)[C@H]4O)[C@H]3NC(C)=O)nn2)CN1C(=O)[C@@H]1CCCN1C(=O)[C@@H]1CCCN1C(=O)[C@@H]1C[C@@H](n2cc(CO[C@@H]3O[C@H](COS(=O)(=O)O)[C@H](OS(=O)(=O)O)[C@H](O[C@@H]4O[C@H](C(=O)O)[C@@H](O)[C@H](O)[C@H]4O)[C@H]3NC(C)=O)nn2)CN1C(=O)[C@@H]1CCCN1C(=O)[C@@H]1CCCN1C(=O)[C@@H]1C[C@@H](n2cc(CO[C@@H]3O[C@H](COS(=O)(=O)O)[C@H](OS(=O)(=O)O)[C@H](O[C@@H]4O[C@H](C(=O)O)[C@@H](O)[C@H](O)[C@H]4O)[C@H]3NC(C)=O)nn2)CN1C(=O)[C@@H]1CCCN1C(=O)[C@@H]1CCCN1C(=O)[C@@H]1C[C@@H](n2cc(CO[C@@H]3O[C@H](COS(=O)(=O)O)[C@H](OS(=O)(=O)O)[C@H](O[C@@H]4O[C@H](C(=O)O)[C@@H](O)[C@H](O)[C@H]4O)[C@H]3NC(C)=O)nn2)CN1C(=O)[C@@H]1CCCN1C(=O)[C@@H]1CCCN1C(=O)[C@@H]1C[C@@H](n2cc(CO[C@@H]3O[C@H](COS(=O)(=O)O)[C@H](OS(=O)(=O)O)[C@H](O[C@@H]4O[C@H](C(=O)O)[C@@H](O)[C@H](O)[C@H]4O)[C@H]3NC(C)=O)nn2)CN1C(=O)[C@@H]1CCCN1C(=O)[C@@H]1CCCN1C(=O)[C@@H]1C[C@@H](n2cc(CO[C@@H]3O[C@H](COS(=O)(=O)O)[C@H](OS(=O)(=O)O)[C@H](O[C@@H]4O[C@H](C(=O)O)[C@@H](O)[C@H](O)[C@H]4O)[C@H]3NC(C)=O)nn2)CN1C(=O)[C@@H]1CCCN1C(=O)[C@@H]1CCCN1C(=O)[C@@H]1C[C@@H](n2cc(CO[C@@H]3O[C@H](COS(=O)(=O)O)[C@H](OS(=O)(=O)O)[C@H](O[C@@H]4O[C@H](C(=O)O)[C@@H](O)[C@H](O)[C@H]4O)[C@H]3NC(C)=O)nn2)CN1C(=O)[C@@H]1CCCN1C(=O)[C@@H]1CCCN1C(=O)CCOCCOCCOCCOCCOCCOCCOCCOCCOCCOCCOCCOCCNC(=O)CCCC[C@@H]1SC[C@@H]2NC(=O)N[C@@H]21` [Glycopeptide 5]: at NGF (KD of 5 versus KD of 1), the “binds to NGF more strongly than agent 1 (comparison of KD values)” value was “approximately 18 fold”. Further, the “SPR overall response to NGF” value at NGF (compared with glycopeptide 1, result in words) is “higher overall responses”. Also, on NGF (setting [2]), the ka2 was 1.97 (±0.02) × 10^−3 M^−1s^−1, the kd1 is 2.74 (±0.04) × 10^−2 s^−1 and the kd2 is 6.00 (±0.17) × 10^−4 s^−1. Also, the ka1 on NGF (two-state kinetic model, 25° C., NGF 11-185 nM, standard errors in parentheses) was 4.65 (±0.16) × 10^4 M^−1s^−1. Besides, in the experiment with PC12 cells (4 ng/ml NGF and 10 μM glycopeptide 3 days, 2 ng/ml NGF and 6 μM glycopeptide 5 days, result in words), the “percentage of neurite-bearing cells” value is given as “greatly increased”. In addition, the “effect on NGF-mediated neurite outgrowth” value in the experiment on PC12 cells (NGF 4 ng/ml, glycopeptide 10 μM, 72 hr, compared to NGF-only control) was “significantly promoted neurite outgrowth”. In the experiment on PC12 cells (in the absence of NGF), the “PC12 cell morphology with glycopeptide only” value is “remained round-shaped and undifferentiated”. The “increase in NGF binding affinity in comparison to 1 (ELISA)” value in experiment [1] was found to be 4.6 fold. Besides, the “increase of NGF-induced TrkA phosphorylation compared to control” value with TrkA is roughly 40%.
